Patent US20140005163A1 (NOVARTIS AG, priority 2010, published 2014)
In brackets after ≈: the same amount, converted by molar mass. Read-outs that look alike come from different tables or passages of the source.

What was measured:
[1] = Solubility at pH 6.8; type: physicochemical
In short: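 Following the procedure of Zhou et al. (2007), compound solubility was determined at pH 6.8.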

[2] = target: T1, mTOR (Homo sapiens, UniProt P42345); experiment: Biochemical assay for m-TOR by TR-FRET; conditions: 8 μM ATP, 400 nM GFP-4EBP1, 0.5 nM mTOR
T1 construct: purchased Invitrogen Corporation (Carlsbad/CA, USA) PV4753
T1 sequence (P42345 1360-2549 limits assumed): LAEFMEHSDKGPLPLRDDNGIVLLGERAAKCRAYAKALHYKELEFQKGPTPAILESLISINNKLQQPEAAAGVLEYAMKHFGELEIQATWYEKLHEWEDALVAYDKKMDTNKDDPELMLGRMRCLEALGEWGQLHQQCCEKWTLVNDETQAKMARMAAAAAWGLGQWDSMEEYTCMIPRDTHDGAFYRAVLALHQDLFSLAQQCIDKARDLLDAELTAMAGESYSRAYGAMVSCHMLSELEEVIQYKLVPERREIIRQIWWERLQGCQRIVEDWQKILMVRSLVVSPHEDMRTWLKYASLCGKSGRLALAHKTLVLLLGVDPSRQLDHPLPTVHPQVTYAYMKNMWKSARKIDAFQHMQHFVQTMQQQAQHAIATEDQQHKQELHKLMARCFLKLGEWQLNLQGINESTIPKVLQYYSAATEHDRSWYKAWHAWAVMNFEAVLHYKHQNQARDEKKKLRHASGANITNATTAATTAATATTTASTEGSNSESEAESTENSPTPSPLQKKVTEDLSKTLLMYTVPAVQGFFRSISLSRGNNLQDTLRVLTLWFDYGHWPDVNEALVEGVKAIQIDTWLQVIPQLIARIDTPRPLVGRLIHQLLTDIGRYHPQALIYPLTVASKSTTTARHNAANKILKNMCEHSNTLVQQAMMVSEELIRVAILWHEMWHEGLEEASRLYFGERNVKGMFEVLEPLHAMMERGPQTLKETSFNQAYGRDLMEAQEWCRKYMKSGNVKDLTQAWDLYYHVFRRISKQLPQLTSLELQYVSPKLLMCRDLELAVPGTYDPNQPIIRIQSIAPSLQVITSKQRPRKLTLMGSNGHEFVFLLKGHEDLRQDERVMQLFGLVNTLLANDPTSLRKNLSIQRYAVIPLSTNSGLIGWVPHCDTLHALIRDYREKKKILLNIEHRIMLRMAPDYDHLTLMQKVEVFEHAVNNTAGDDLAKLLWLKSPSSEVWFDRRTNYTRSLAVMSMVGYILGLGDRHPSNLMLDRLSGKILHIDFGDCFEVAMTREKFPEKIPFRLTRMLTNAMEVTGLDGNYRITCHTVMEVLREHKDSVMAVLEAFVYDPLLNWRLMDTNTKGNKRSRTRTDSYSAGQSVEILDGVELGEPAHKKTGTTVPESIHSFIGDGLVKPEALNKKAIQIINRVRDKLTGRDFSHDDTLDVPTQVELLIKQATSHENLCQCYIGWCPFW
In short: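 Enzyme 0.5 nM, GFP-4EBP1 400 nM, ATP 8 μM (all final); 50 mM HEPES pH 7.5, 10 mM MnCl2, 1 mM DTT; rt. Detection: Tb-α-p4EBP1 [pT46] 0.5 nM in EDTA, TR-FRET, 15 min. Reference compound on every plate, 16-point duplicate dilutions.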

[3] = system: PKB Ser473 phosphorylation in Rat1-myr-HA-p110 alpha cells; experiment: Reverse protein array assay, PKB Ser473 phosphorylation in Rat1-myr-p110 alpha cells; type: cell-based; conditions: 0.5 h, pAkt Ser473, 30 minutes compound incubation, read-out: p-PKB IC50
In short: (§1)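 Compound exposure lasted 30 min in Rat1 cells bearing membrane-targeted HA-p110 isoforms, using 8 serial concentrations. Arrayed lysates, each spotted at four dilutions, gave relative fluorescence signals for phospho-Ser473 PKB.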

[4] = system: PKB Ser473 phosphorylation in Rat1-myr-HA-p110 beta cells; experiment: Reverse protein array assay, PKB Ser473 phosphorylation in Rat1-myr-p110 beta cells; type: cell-based; conditions: 0.5 h, pAkt Ser473, 30 minutes incubation, read-out: p-PKB IC50
In short: as §1

[5] = system: PKB Ser473 phosphorylation in Rat1-myr-HA-p110 delta cells; experiment: Reverse protein array assay, PKB Ser473 phosphorylation in Rat1-myr-p110 delta cells; type: cell-based; conditions: read-out: p-PKB IC50
In short: as §1

[6] = system: S6 Ribosomal Protein phosphorylation Ser235/236 in TSC1 null mouse embryo fibroblast (MEF) cells; experiment: Reverse protein array assay, S6 Ribosomal Protein phosphorylation Ser235/236 in TSC1 null MEF cells; type: cell-based; conditions: 1 h, pS6 ribosomal protein Ser235/236, 60 minutes incubation, read-out: p-S6 IC50
In short: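 TSC1−/− MEFs, seeded and held ≥20 h at 37 °C/5% CO2, were exposed to 8-step serial compound dilutions (0.02% DMSO final; DMSO vehicle control) for 60 min at 37 °C. Cells were then lysed on ice for 10 min and lysates spotted onto reverse protein array chips.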

[7] = pH 6.8, aqueous buffer, thermodynamic from solid, read-out: solubility

solubility ([1]; pH 6.8)	IC50 [2]	IC50 [3]	IC50 [4]	IC50 [5]	solubility [1, 7]	Compound	IC50 [6]
–	37 nM	19 nM	16 nM	54 nM	5 µg/mL (≈ 10.9 µM)	Cc1nn(C)cc1-n1c(=O)n(C)c2cnc3ccc(-c4cnc(CO)c(OC(C)C)c4)cc3c21 [Example 190, 1-(1,3-Dimethyl-1H-pyrazol-4-yl)-8-(6-hydroxymethyl-5-isopropoxy-pyridin-3-yl)-3-methyl-1,3-dihydro-imidazo[4,5-c]quinolin-2-one]	2 nM
–	12 nM	23 nM	26 nM	29 nM	8 µg/mL (≈ 17.1 µM)	[2H]C([2H])([2H])OCc1ncc(-c2ccc3ncc4c(c3c2)n(-c2cn(C)nc2Cl)c(=O)n4C)cc1OC [Example 199, 1-(3-Chloro-1-methyl-1H-pyrazol-4-yl)-8-(5-methoxy-6-trideuteromethoxymethyl-pyridin-3-yl)-3-methyl-1,3-dihydro-imidazo[4,5-c]quinolin-2-one]	2 nM
–	17 nM	< 5 nM	< 5 nM	5 nM	15 µg/mL (≈ 31.3 µM)	Cc1ncc(-c2ccc3ncc4c(c3c2)n(-c2cn(C)nc2C)c(=O)n4C)cc1OC(CF)CF [Example 189, 1-(1,3-Dimethyl-1H-pyrazol-4-yl)-8-[5-(2-fluoro-1-fluoromethyl-ethoxy)-6-methyl-pyridin-3-yl]-3-methyl-1,3-dihydro-imidazo[4,5-c]quinolin-2-one]	1 nM
–	10 nM	13 nM	26 nM	23 nM	22 µg/mL (≈ 51 µM)	COc1ncc(-c2ccc3ncc4c(c3c2)n(-c2cn(C)nc2C)c(=O)n4C)c(OC)n1 [Example 234.2, 8-(2,4-Dimethoxy-pyrimidin-5-yl)-1-(1,3-dimethyl-1H-pyrazol-4-yl)-3-methyl-1,3-dihydro-imidazo[4,5-c]quinolin-2-one]	1 nM
–	447 nM	150 nM	162 nM	403 nM	> 431 µg/mL	CNc1ncc(-c2ccc3ncc4c(c3c2)n(-c2c(C)nn(C)c2C)c(=O)n4C)cc1F [Example 141.1, 8-(5-Fluoro-6-methylamino-pyridin-3-yl)-3-methyl-1-(1,3,5-trimethyl-1H-pyrazol-4-yl)-1,3-dihydro-imidazo[4,5-c]quinolin-2-one]	34 nM
–	481 nM	157 nM	300 nM	306 nM	> 417 µg/mL	Cc1nn(C)c(C)c1-n1c(=O)n(C)c2cnc3ccc(-c4cnc(N)c(F)c4)cc3c21 [Example 142.1, 8-(6-Amino-5-fluoro-pyridin-3-yl)-3-methyl-1-(1,3,5-trimethyl-1H-pyrazol-4-yl)-1,3-dihydro-imidazo[4,5-c]quinolin-2-one]	36 nM
–	8 nM	7 nM	10 nM	15 nM	4 µg/mL (≈ 9.58 µM)	CNc1cc(-c2ccc3ncc4c(c3c2)n(-c2cn(C)nc2C)c(=O)n4C)cnc1F [Example 150.2, 1-(1,3-Dimethyl-1H-pyrazol-4-yl)-8-(6-fluoro-5-methylamino-pyridin-3-yl)-3-methyl-1,3-dihydro-imidazo[4,5-c]quinolin-2-one]	1 nM
–	25 nM	14 nM	54 nM	56 nM	> 473 µg/mL	COCc1ncc(-c2ccc3ncc4c(c3c2)n(-c2cn(C)nc2C)c(=O)n4C)cc1OC(C)C [Example 191.1, 1-(1,3-Dimethyl-1H-pyrazol-4-yl)-8-(5-isopropoxy-6-methoxymethyl-pyridin-3-yl)-3-methyl-1,3-dihydro-imidazo[4,5-c]quinolin-2-one]	4 nM

The remaining lines, values behind:

Compound	solubility ([1]; pH 6.8)	IC50 [2]	IC50 [3]	IC50 [4]	IC50 [5]	solubility [1, 7]	IC50 [6]
Cc1nn(C)cc1-n1c(=O)n(C)c2cnc3ccc(-c4cccc(O)c4)cc3c21 [Example 32.1, 1-(1,3-Dimethyl-1H-pyrazol-4-yl)-8-(3-hydroxy-phenyl)-3-methyl-1,3-dihydro-imidazo[4,5-c]quinolin-2-one]	2 µg/mL (≈ 5.19 µM)	28 nM	85 nM	110 nM	193 nM	–	11 nM
CCOc1ccc(-c2ccc3ncc4[nH]c(=O)n(-c5cn(C)nc5C)c4c3c2)cn1 [Example 110, 1-(1,3-Dimethyl-1H-pyrazol-4-yl)-8-(6-ethoxy-pyridin-3-yl)-1,3-dihydro-imidazo[4,5-c]quinolin-2-one]	2 µg/mL (≈ 4.99 µM)	14 nM	67 nM	113 nM	196 nM	–	78 nM
Cc1nn(C)cc1-n1c(=O)n(C)c2cnc3ccc(-c4cccc(C(N)=O)c4)cc3c21 [Example 46, 3-[1-(1,3-Dimethyl-1H-pyrazol-4-yl)-3-methyl-2-oxo-2,3-dihydro-1H-imidazo[4,5-c]quinolin-8-yl]-benzamide]	–	231 nM	214 nM	541 nM	489 nM	8 µg/mL (≈ 19.4 µM)	98 nM
CCOc1ccc(-c2ccc3ncc4c(c3c2)n(-c2cn(CC)nc2C)c(=O)n4C)cc1OCC [Example 27.1, 8-(3,4-Diethoxy-phenyl)-1-(1-ethyl-3-methyl-1H-pyrazol-4-yl)-3-methyl-1,3-dihydro-imidazo[4,5-c]quinolin-2-one]	2 µg/mL (≈ 4.24 µM)	49 nM	17 nM	21 nM	56 nM	–	13 nM
Cc1nn(CC(=O)N(C)C)cc1-n1c(=O)n(C)c2cnc3ccc(-c4ccccc4)cc3c21 [Example 37.3, N,N-Dimethyl-2-[3-methyl-4-(3-methyl-2-oxo-8-phenyl-2,3-dihydro-imidazo[4,5-c]quinolin-1-yl)-pyrazol-1-yl]-acetamide]	–	19 nM	40 nM	235 nM	362 nM	41 µg/mL (≈ 93.1 µM)	15 nM
Cc1nn(C)cc1-n1c(=O)n(C)c2cnc3ccc(-c4ccc(C(N)=O)cc4)cc3c21 [Example 41, 4-[1-(1,3-Dimethyl-1H-pyrazol-4-yl)-3-methyl-2-oxo-2,3-dihydro-1H-imidazo[4,5-c]quinolin-8-yl]-benzamide]	–	5 nM	48 nM	37 nM	92 nM	14 µg/mL (≈ 33.9 µM)	23 nM
Cc1nn(C)cc1-n1c(=O)n(C)c2cnc3ccc(-c4cnc5c(c4)nnn5C)cc3c21 [Example 72, 1-(1,3-Dimethyl-1H-pyrazol-4-yl)-3-methyl-8-(3-methyl-3H-[1,2,3]triazolo[4,5-b]pyridin-6-yl)-1,3-dihydro-imidazo[4,5-c]quinolin-2-one]	–	179 nM	166 nM	299 nM	225 nM	37 µg/mL (≈ 87 µM)	58 nM
CCOc1cc(-c2ccc3ncc4c(c3c2)n(-c2cn(C)nc2C)c(=O)n4C)ccc1OC [Example 28.3, 1-(1,3-Dimethyl-1H-pyrazo1-4-yl)-8-(3-ethoxy-4-methoxy-phenyl)-3-methyl-1,3-dihydro-imidazo[4,5-c]quinolin-2-one]	2 µg/mL (≈ 4.51 µM)	13 nM	9 nM	15 nM	24 nM	–	2 nM
Cc1nn(C)cc1-n1c(=O)n(C)c2cnc3ccc(-c4cccc(S(=O)(=O)N(C)C)c4)cc3c21 [Example 53.1, 3-[1-(1,3-Dimethyl-1H-pyrazol-4-yl)-3-methyl-2-oxo-2,3-dihydro-1H-imidazo[4,5-c]quinolin-8-yl]-N,N-dimethyl-benzenesulfonamide]	–	107 nM	15 nM	43 nM	128 nM	3 µg/mL (≈ 6.3 µM)	43 nM
CCOc1ccc(-c2ccc3ncc4c(c3c2)n(-c2cnn(C)c2C)c(=O)n4C)cn1 [Example 3.6, 1-(1,5-Dimethyl-1H-pyrazol-4-yl)-8-(6-ethoxy-pyridin-3-yl)-3-methyl-1,3-dihydro-imidazo[4,5-c]quinolin-2-one]	2 µg/mL (≈ 4.83 µM)	191 nM	45 nM	119 nM	232 nM	–	15 nM
Cc1nn(C)cc1-n1c(=O)n(C)c2cnc3ccc(-c4ccc(-n5cccn5)nc4)cc3c21 [Example 79, 1-(1,3-Dimethyl-1H-pyrazol-4-yl)-3-methyl-8-(6-pyrazol-1-yl-pyridin-3-yl)-1,3-dihydro-imidazo[4,5-c]quinolin-2-one]	2 µg/mL (≈ 4.58 µM)	< 3 nM	1 nM	7 nM	16 nM	–	5 nM
